Data reported in patent US5441944A, “Substituted cyclodextrin sulfates and their uses as growth modulating agents” (The Trustees of the University of Pennsylvania, priority 1992, dated 1995).

What was measured:
[1] = system: tumor angiogenesis in hamster cheek pouches; details: Shubik et al. 1976, cited from earlier work
[2] = system: tumor angiogenesis in rabbit corneas; details: Gross et al. 1981; cited from earlier work
capillary growth; tumors = details: cited from earlier work
[3] = conductivity measurements in deionized water; assay type: physicochemical
Excerpt: Conductivity is an accepted method for measuring the degree of ionic substitution and can be used to evidence the addition of a charged group, such as sulfate to a compound. […] Results of conducting measurements obtained in deionized water having a background conductivity of 2.5 (±0.2)×[…] mho/cm are shown in Table I.

[4] = dye staining analysis for high density sulfate saccharides (Alcian Blue, alumina TLC plate); assay type: physicochemical; details: 0.8 mg/ml sample, 1 μl spot; 0.5 mg/ml Alcian Blue, 0.25M acetate buffer, 5.6 pH
Description: Such complexing behavior has been utilized in histology, for selective staining to indicate high sulfur natural saccharides such as heparin (Snow et al., 1987, Human Pathology 18:506-510 and Dorling, 1969, Med. Lab. Techn. 26:124-130).
The following procedure was used to detect the presence of high density sulfate groups. An alumina TLC plate (Analtech, Newark, Del.) was spotted with a drop (1 μl) of a sample (0.8 mg/ml) to be tested. The spot or spots were dried for 10 minutes at about 60° C. Aqueous solution of 0.5 mg/ml of Alcian Blue (8GX, Aldrich), buffered with 0.25M acetate buffer at 5.6 pH is allowed to rise along the plate up to and past the test spot.

[5] = assay type: physicochemical; details: water
Description: The substituted CD sulfates useful in the present invention are highly hydrophilic and therefore very water soluble, with a solubility of at least 20 gm/100 ml in water at 0° C. Without wishing to be bound by theory, we believe that a highly hydrophilic character is important to allow interaction with cellular surfaces. We also believe a very high water solubility of the derivative is an important factor which cooperatively interacts with the inherent complexing ability of the CD structure to provide effective inhibition of angiogenesis with an exogenous steroid, as provided by this invention. We believe that the hydrophilic activity is roughly indicated by the affinity to water, as measured by water solubility. It is important to measure the same at 0° C. since at higher temperatures the most suitable derivatives have solubilities so high that it is difficult to obtain meaningful measurements.

| Compound | inhibition of tumor angiogenesis [2] | Conductivity [3] | further results |
| --- | --- | --- | --- |
| C[C@H]1C[C@@H]2[C@H]([C@@H](O)C[C@@]3(C)[C@H]2CC[C@]3(O)C(=O)CO)[C@@]2(C)C=CC(=O)C=C12 [6 α-methyl prednisolone] |  |  | tumor growth [1]: tumor growth was not stopped; suppression of tumor angiogenesis ([1]; under certain conditions): partially suppressed tumor angiogenesis |
| C[C@]12CCC(=O)C=C1CC[C@@H]1[C@@H]2C(=O)C[C@@]2(C)[C@H]1CC[C@]2(O)C(=O)CO [cortisone, 17 alpha, 21-dihydroxy-4-pregene-3,11,20-trione] | to a lesser extent cortisone, inhibited tumor angiogenesis |  | inhibition of capillary growth (capillary growth; tumors; cortisone by itself): does not have the ability to inhibit capillary growth; tumor growth (capillary growth; tumors; large amounts of cortisone, many other publications): continued growth of tumors |
| C[C@@H]1C[C@H]2[C@@H]3CCC4=CC(=O)C=C[C@]4(C)[C@@]3(F)[C@@H](O)C[C@]2(C)[C@@]1(O)C(=O)CO [dexamethasone] | inhibited tumor angiogenesis |  |  |
| C[C@]12CC[C@@H]3c4ccc(O)cc4CC[C@H]3[C@@H]1CC[C@@H]2O [estradiol] | ineffective |  |  |
| CC(=O)[C@@]1(O)CC[C@H]2[C@@H]3C[C@H](C)C4=CC(=O)CC[C@]4(C)[C@H]3CC[C@@]21C [medroxyprogestrone] | inhibited tumor angiogenesis |  |  |
| C[C@]12CC[C@H]3[C@@H](CCC4=CC(=O)CC[C@@]43C)[C@@H]1CC[C@@H]2O [testosterone] | ineffective |  |  |
| OC[C@H]1O[C@@H]2O[C@H]3[C@H](O)[C@@H](O)[C@@H](O[C@H]4[C@H](O)[C@@H](O)[C@@H](O[C@H]5[C@H](O)[C@@H](O)[C@@H](O[C@H]6[C@H](O)[C@@H](O)[C@@H](O[C@H]7[C@H](O)[C@@H](O)[C@@H](O[C@H]8[C@H](O)[C@@H](O)[C@@H](O[C@H]1[C@H](O)[C@H]2O)O[C@@H]8CO)O[C@@H]7CO)O[C@@H]6CO)O[C@@H]5CO)O[C@@H]4CO)O[C@@H]3CO [β-cyclodextrin] |  | immeasurable |  |
| n-tetrapropoxy-β-cyclodextrin [n-tetrapropoxy β-cyclodextrin] |  | immeasurable |  |
| n-tetrapropoxy-β-cyclodextrin sulfate |  | 4.5 10^-4 mho/cm per mg/ml | Alcian Blue stain [4]: generate an Alcian Blue stain; solubility [5]: 37 gm/100 ml H2O |
| β-cyclodextrin tetradecasulfate |  |  | Conductivity (average of 2 samples) ([3]; average of 2 samples): 4.6 10^-4 mho/cm per mg/ml; Alcian Blue stain [4]: generate an Alcian Blue stain |
